Patent US6461997B1, “Triazole sulfones having herbicidal activity” (Monsanto Technology LLC, priority 1999, dated 2002)

Experiments:
[1] = system: PANMI (wild proso millet); assay: Pre-plant incorporated (PPI) herbicidal activity, warm season; assay type: in vivo, Panicum miliaceum; conditions: for Percent inhibition PANMI: PPI application
Procedure: (§1) In another set of tests, the pre-plant incorporated (PPI) activity of compounds of this invention was evaluated on the same species as for the pre-emergence tests described above. In the PPI tests the following procedure, designed to simulate PPI application, was used.
(§2) A pre-prepared topsoil mixture (described above) was placed in a pot and compacted to a depth of 1.0 to 1.25 cm from the top of the pot. Seeds of each of several monocotyledonous and dicotyledonous annual plant species were placed on top of the soil. A sufficient quantity of soil to cover the seeds and level fill the pot was weighed into an open container. A known amount of the test compound was dissolved or suspended in an organic solvent and applied by spraying to this cover soil. The cover soil was thoroughly mixed to distribute the test compound throughout the cover soil, and was then applied as a cover layer over the seeds. Untreated soil was used as a cover layer for control pots. After treatment the plants were placed in a greenhouse where they received 0.64 cm of overhead irrigation. All subsequent watering consisted of a light overhead mist and/or subirrigation as needed for germination and growth. Tables 9 and 10 below relate to warm season plant species which were placed after pre-emergence treatment in a greenhouse with a 30/21° C. day/night temperature regime. Tables 11 and 12 below relates to cool season plant species placed after pre-emergence treatment in a greenhouse or growth chamber with an 18/13° C. day/night temperature regime. Only the compounds of Examples 1, 6, 8, 11, 13 and 15-20 were included in PPI tests.
(§3) Approximately 14 days after planting and treating, the plants were observed and herbicidal efficacy recorded as percent inhibition by comparison with untreated plants.

ECHCG (barnyardgrass) = assay: Pre-emergence herbicidal activity, warm season; assay type: in vivo, Echinochloa crus-galli; conditions: GR80 = lowest tested rate (300, 100, 30, 10 g/ha) with 80% or greater inhibition; approx. 14 days after treating; 30/21° C.
Outline: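 Seeds sown in sterilised fertilised topsoil received surface-applied compound in 50:50 acetone/water, typically at 300, 100, 30 and 10 g/ha, then greenhouse-grown at 30/21° C (warm-season species) or 18/13° C (cool-season species). Percent inhibition versus untreated plants was scored at about 14 days, giving GR80; an asterisk marks activity short of 80% at the top rate.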

AVEFA (wild oat) = assay: Pre-emergence herbicidal activity, cool season; assay type: in vivo, Avena fatua; conditions: GR80 = lowest tested rate (300, 100, 30, 10 g/ha) with 80% or greater inhibition; approx. 14 days after treating; 18/13° C.
Outline: (§4)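 GR80 values derive from percent inhibition relative to untreated plants, read roughly 14 days after sowing and pre-emergence soil-surface treatment (compound in 50:50 acetone/water; rates typically 10, 30, 100, 300 g/ha). Warm-season weeds grew at 30/21° C day/night, cool-season ones at 18/13° C; an asterisk marks activity without reaching 80% at the highest rate.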

POROL (common purslane) [2] = assay: Pre-plant incorporated (PPI) herbicidal activity, warm season; assay type: in vivo, Portulaca oleracea; conditions: GR80 = lowest tested rate with 80% or greater inhibition, approx. 14 days after treating, 30/21° C.
Procedure: as §1, §2, §3

[3] = system: GALAP (catchweed bedstraw); assay: Pre-emergence herbicidal activity, cool season; assay type: in vivo, Galium aparine; conditions: lowest tested rate with 80% or greater inhibition; rates 300, 100, 30, 10 g/ha; about 14 days
Outline: as §4

SOLNI (black nightshade) [4] = assay: Pre-plant incorporated (PPI) herbicidal activity, warm season; assay type: in vivo, Solanum nigrum; conditions: for Percent inhibition SOLNI: PPI application
Procedure: as §1, §2, §3

[5] = system: CHEAL (common lambsquarters); assay: as above; assay type: in vivo, Chenopodium album; conditions: for Percent inhibition CHEAL: PPI application
Procedure: as §1, §2, §3

[6] = system: CIRAR (canada thistle (seedling)); assay: as above; assay type: in vivo, Cirsium arvense; conditions: GR80 = lowest tested rate with 80% or greater inhibition, approx. 14 days after treating, 30/21° C.
Procedure: as §1, §2, §3

AMARE (redroot pigweed) = assay: Pre-emergence herbicidal activity, warm season; assay type: in vivo, Amaranthus retroflexus; conditions: GR80 = lowest tested rate (300, 100, 30, 10 g/ha) with 80% or greater inhibition; approx. 14 days after treating; 30/21° C.
Outline: as §4

POROL (common purslane) [7] = assay: Pre-emergence herbicidal activity, warm season; assay type: in vivo, Portulaca oleracea; conditions: GR80 = lowest tested rate (300, 100, 30, 10 g/ha) with 80% or greater inhibition; approx. 14 days after treating; 30/21° C.
Outline: as §4

oilseed rape (BRSNS) = assay: Selectivity test, PPI, cool season crop; assay type: in vivo, Brassica napus; conditions: PPI application
Procedure: as §2, §3
Additional pre-emergence and PPI tests were conducted by the procedures described above, on warm and cool season weed species in the presence of crop species, to assess herbicidal selectivity. Crop species included in warm season tests were corn (Zea mays, ZEAMX), rice (Oryza sativa, ORYSA) and soybean (Glycine max, GLYMX). Crop species included in cool season tests were wheat (Triticum aestivum, TRZAW), barley (Hordeunm vulgare, HORVX) and oilseed rape (Brassica napus, BRSNS).
Tables 15 and 16 relate to pre-emergence and PPI tests respectively on warm season species. Table 17 relates to pre-emergence tests on cool season species.

SOLNI (black nightshade) [8] = assay: Pre-emergence herbicidal activity, warm season; assay type: in vivo, Solanum nigrum; conditions: GR80 = lowest tested rate (300, 100, 30, 10 g/ha) with 80% or greater inhibition; approx. 14 days after treating; 30/21° C.
Outline: as §4

[9] = pre-plant incorporated, GR80 = lowest tested rate with 80% or greater inhibition, approx. 14 days after treating, 30/21° C.

Structure (SMILES): CCN(CC)C(=O)n1cnc(S(=O)(=O)C(F)(F)C(=O)c2ccccc2)n1 [Example 6]
- PPI activity GR80, PANMI ([1]; pre-plant incorporated, lowest tested rate with 80% or greater inhibition, about 14 days): 100 g/ha
- Pre-emergence activity (GR80) ECHCG (ECHCG (barnyardgrass)): * (activity observed, at least at highest rate, but <80% inhibition)
- Pre-emergence activity (GR80) AVEFA (AVEFA (wild oat)): 300 g/ha
- PPI activity (GR80) POROL (POROL (common purslane) [2]): 300 g/ha
- Pre-emergence activity GR80, GALAP [3]: 100 g/ha
- PPI activity (GR80) SOLNI (SOLNI (black nightshade) [4]; [9]): 100 g/ha
- PPI activity (GR80) CHEAL [5, 9]: 100 g/ha
- PPI activity (GR80) CIRAR [6]: 100 g/ha

Structure (SMILES): CCN(CC)C(=O)n1cnc(S(=O)(=O)C(F)(F)SC)n1 [Example 9]
- Percent inhibition PANMI ([1]; 30 g/ha): 60%
- Percent inhibition PANMI ([1]; 100 g/ha): 80%
- Percent inhibition PANMI ([1]; 300 g/ha): 100%
- Percent inhibition PANMI ([1]; 900 g/ha): 100%
- Pre-emergence activity (GR80) AMARE (AMARE (redroot pigweed)): 300 g/ha
- Pre-emergence activity (GR80) ECHCG (ECHCG (barnyardgrass)): 300 g/ha
- Pre-emergence activity (GR80) AVEFA (AVEFA (wild oat)): 300 g/ha
- Pre-emergence activity GR80, GALAP [3]: [empty]
- Pre-emergence activity (GR80) POROL (POROL (common purslane) [7]): 300 g/ha
- Percent inhibition BRSNS (oilseed rape (BRSNS); 30 g/ha): 50%
- Percent inhibition BRSNS (oilseed rape (BRSNS); 100 g/ha): 95%
- Percent inhibition BRSNS (oilseed rape (BRSNS); 300 g/ha): 100%
- Percent inhibition BRSNS (oilseed rape (BRSNS); 900 g/ha): 100%
- Percent inhibition SOLNI (SOLNI (black nightshade) [4]; 30 g/ha): 95%
- Percent inhibition SOLNI (SOLNI (black nightshade) [4]; 100 g/ha): 100%
- Percent inhibition SOLNI (SOLNI (black nightshade) [4]; 300 g/ha): 100%
- Percent inhibition SOLNI (SOLNI (black nightshade) [4]; 900 g/ha): 99%
- Percent inhibition CHEAL ([5]; 30 g/ha): 95%
- Percent inhibition CHEAL ([5]; 100 g/ha): 100%
- Percent inhibition CHEAL ([5]; 300 g/ha): 100%
- Percent inhibition CHEAL ([5]; 900 g/ha): 100%
- Pre-emergence activity (GR80) SOLNI (SOLNI (black nightshade) [8]): 100 g/ha
